# Molecular target: CDK2 (human) (UniProt P24941)
# Assay: Enzyme Assay
row,SMILES,IC50 [nM]
1,Clc1ccccc1C1=Nc2c[nH]nc2Nc2ccccc21,10 to 990
2,CCC(C)c1[nH]nc2c1N=C(c1ccccc1Cl)c1cc([N+](=O)[O-])ccc1N2 (stereo not drawn),10 to 990
3,Cc1[nH]nc2c1N=C(c1ccccc1F)c1cc(I)ccc1N2,10 to 990
4,Cc1[nH]nc2c1N=C(c1ccccc1)c1cc(Cl)ccc1N2,10 to 990
5,Cc1[nH]nc2c1N=C(c1ccccc1Cl)c1cc([N+](=O)[O-])ccc1N2,10 to 990
6,CC(C)c1[nH]nc2c1N=C(c1ccccc1Cl)c1cc(N)ccc1N2,10 to 990
7,Cc1[nH]nc2c1N=C(c1ccccc1)c1cc(F)ccc1N2,10 to 990
8,O=[N+]([O-])c1ccc2c(c1)C(c1ccccc1Cl)=Nc1c(n[nH]c1-c1ccco1)N2,10 to 990
9,O=[N+]([O-])c1ccc2c(c1)C(c1ccccc1Cl)=Nc1c(n[nH]c1-c1cccc(S)c1)N2,10 to 990
10,Cc1[nH]nc2c1N=C(c1ccccc1F)c1cc(C#N)ccc1N2,10 to 990
11,O=[N+]([O-])c1ccc2c(c1)C(c1ccccc1Cl)=Nc1c(n[nH]c1C(F)(F)F)N2,10 to 990
12,O=[N+]([O-])c1ccc2c(c1)C(c1ccccc1C(F)(F)F)=Nc1c[nH]nc1N2,10 to 990
13,O=C(c1ccc2c(c1)C(c1ccccc1F)=Nc1c[nH]nc1N2)N1CCOCC1,10 to 990
14,Cc1[nH]nc2c1N=C(c1ccccc1)c1ccccc1N2,10 to 990
15,NC(=O)c1[nH]nc2c1N=C(c1ccccc1Cl)c1cc([N+](=O)[O-])ccc1N2,10 to 990
16,O=[N+]([O-])c1ccc2c(c1)C(c1ccccc1Cl)=Nc1c(n[nH]c1-c1ccncc1)N2,10 to 990
17,O=C(NCCO)c1ccc2c(c1)C(c1ccccc1F)=Nc1c[nH]nc1N2,10 to 990
18,O=[N+]([O-])c1ccc2c(c1)C(c1ccccc1Cl)=Nc1c(n[nH]c1-c1cccc3c1OCO3)N2,10 to 990
19,N#Cc1ccc2c(c1)C(c1ccccc1F)=Nc1c(n[nH]c1CO)N2,10 to 990
20,O=[N+]([O-])c1cccc(-c2[nH]nc3c2N=C(c2ccccc2Cl)c2cc([N+](=O)[O-])ccc2N3)c1,10 to 990
21,CC(C)c1[nH]nc2c1N=C(c1ccccc1Cl)c1cc([N+](=O)[O-])ccc1N2,10 to 990
22,O=[N+]([O-])c1ccc2c(c1)C(c1ccccc1Cl)=Nc1c(n[nH]c1-c1ccc(-c3ccccc3)cc1)N2,10 to 990
23,O=[N+]([O-])c1ccc2c(c1)C(c1ccccc1Cl)=Nc1c(n[nH]c1-c1cccnc1)N2,10 to 990
24,O=[N+]([O-])c1ccc2c(c1)C(c1ccccc1Cl)=Nc1c(n[nH]c1CO)N2,10 to 990
25,C=CC(=O)Nc1ccc2c(c1)C(c1ccccc1Cl)=Nc1c(n[nH]c1C)N2,10 to 990

row,SMILES,IC50 [nM]
1,Cc1[nH]nc2c1N=C(c1ccccc1F)c1ccccc1N2,10 to 990
2,Cc1[nH]nc2c1N=C(c1ccccc1F)c1cc(C(=O)NCCN3CCOCC3)ccc1N2,10 to 990
3,Cc1[nH]nc2c1N=C(c1ccccc1F)c1cc(C(=O)N3CCOCC3)ccc1N2,10 to 990
4,Cc1[nH]nc2c1N=C(c1ccccc1C(F)(F)F)c1cc([N+](=O)[O-])ccc1N2,10 to 990
5,Cc1[nH]nc2c1N=C(c1ccccc1Cl)c1cc(N)ccc1N2,10 to 990
6,CCc1[nH]nc2c1N=C(c1ccccc1Cl)c1cc([N+](=O)[O-])ccc1N2,10 to 990
7,O=[N+]([O-])c1ccc2c(c1)C(c1ccccc1Cl)=Nc1c(n[nH]c1-c1nccs1)N2,10 to 990
8,O=[N+]([O-])c1ccc2c(c1)C(c1ccccc1Cl)=Nc1c(n[nH]c1-c1cc[nH]n1)N2,10 to 990
9,CCOC(=O)c1ccc2c(c1)C(c1ccccc1F)=Nc1c[nH]nc1N2,10 to 990
10,Cc1[nH]nc2c1N=C(c1ccccc1Cl)c1ccccc1N2,10 to 990
11,C=Cc1[nH]nc2c1N=C(c1ccccc1Cl)c1cc([N+](=O)[O-])ccc1N2,10 to 990
12,O=[N+]([O-])c1ccc2c(c1)C(c1ccccc1Cl)=Nc1c(n[nH]c1-n1cccn1)N2,10 to 990
13,COc1ccc2c(c1)C(c1ccccc1Cl)=Nc1c(n[nH]c1C)N2,10 to 990
14,NC(=O)c1ccc2c(c1)C(c1ccccc1F)=Nc1c[nH]nc1N2,10 to 990
15,O=[N+]([O-])c1ccc2c(c1)C(c1ccccc1Cl)=Nc1c(n[nH]c1-c1ccccc1S)N2,10 to 990
16,CC(=O)Nc1ccc2c(c1)C(c1ccccc1Cl)=Nc1c(n[nH]c1C)N2,10 to 990
17,Cc1[nH]nc2c1N=C(c1ccccc1Cl)c1cc(NS(=O)(=O)N(C)C)ccc1N2,10 to 990
18,O=[N+]([O-])c1ccc2c(c1)C(c1ccccc1Cl)=Nc1c(n[nH]c1-c1c[nH]cn1)N2,10 to 990
19,O=[N+]([O-])c1ccc2c(c1)C(c1ccccc1F)=Nc1c[nH]nc1N2,10 to 990
20,Cc1[nH]nc2c1N=C(c1ccccc1Cl)c1cc(NS(C)(=O)=O)ccc1N2,10 to 990
21,N#Cc1ccc2c(c1)C(c1ccccc1F)=Nc1c[nH]nc1N2,10 to 990
22,Cc1cccc(S)c1-c1[nH]nc2c1N=C(c1ccccc1Cl)c1cc([N+](=O)[O-])ccc1N2,10 to 990
23,Cc1[nH]nc2c1N=C(c1ccccc1F)c1cc(Cl)ccc1N2,10 to 990
24,COc1cc(O)ccc1-c1[nH]nc2c1N=C(c1ccccc1Cl)c1cc([N+](=O)[O-])ccc1N2,10 to 990
25,NNC(=O)c1[nH]nc2c1N=C(c1ccccc1Cl)c1cc([N+](=O)[O-])ccc1N2,10 to 990

row,SMILES,IC50 [nM]
1,Cc1[nH]nc2c1N=C(c1ccccc1Cl)c1cc(Cl)ccc1N2,10 to 990
2,CCCc1[nH]nc2c1N=C(c1ccccc1Cl)c1cc([N+](=O)[O-])ccc1N2,10 to 990
3,O=[N+]([O-])c1ccc2c(c1)C(c1ccccc1Cl)=Nc1c[nH]nc1N2,10 to 990
4,Cc1[nH]nc2c1N=C(c1ccccc1F)c1cc(C(N)=O)ccc1N2,10 to 990
5,O=[N+]([O-])c1ccc2c(c1)C(c1ccccc1Cl)=Nc1c(n[nH]c1-c1ccccc1)N2,10 to 990
6,CCOC(=O)c1ccc2c(c1)C(c1ccccc1F)=Nc1c(n[nH]c1C)N2,10 to 990
7,COCc1[nH]nc2c1N=C(c1ccccc1Cl)c1cc([N+](=O)[O-])ccc1N2,10 to 990
8,O=[N+]([O-])c1ccc2c(c1)C(c1ccccc1)=Nc1c[nH]nc1N2,10 to 990
9,O=[N+]([O-])c1ccc2c(c1)C(c1ccccc1)=Nc1c(n[nH]c1C1CC1)N2,10 to 990
10,O=[N+]([O-])c1cccc(C2=Nc3c[nH]nc3Nc3ccc([N+](=O)[O-])cc32)c1,10 to 990
11,Cc1[nH]nc2c1N=C(c1ccccc1F)c1cc(C(=O)NCCO)ccc1N2,10 to 990
12,Cc1[nH]nc2c1N=C(c1ccccc1Cl)c1cc(NS(=O)(=O)N3CCOCC3)ccc1N2,10 to 990
13,Cc1[nH]nc2c1N=C(c1ccccc1Cl)c1cc(NS(=O)(=O)NCCl)ccc1N2,10 to 990
14,CSc1ccc(-c2[nH]nc3c2N=C(c2ccccc2Cl)c2cc([N+](=O)[O-])ccc2N3)cc1,10 to 990
15,O=[N+]([O-])c1ccc2c(c1)C(c1ccccc1Cl)=Nc1c(n[nH]c1C1CC1)N2,10 to 990
16,O=Cc1[nH]nc2c1N=C(c1ccccc1Cl)c1cc([N+](=O)[O-])ccc1N2,10 to 990
17,O=[N+]([O-])c1ccc2c(c1)C(c1ccccc1Cl)=Nc1c(n[nH]c1-c1ccc[nH]1)N2,10 to 990
18,N#Cc1[nH]nc2c1N=C(c1ccccc1Cl)c1cc([N+](=O)[O-])ccc1N2,10 to 990
19,O=[N+]([O-])c1ccc2c(c1)C(c1ccccc1Cl)=Nc1c(n[nH]c1-c1ccc(OC(F)(F)F)cc1)N2,10 to 990
20,Cc1[nH]nc2c1N=C(c1ccccc1F)c1cc(F)ccc1N2,10 to 990
21,Cc1[nH]nc2c1N=C(c1ccccc1F)c1cc([N+](=O)[O-])ccc1N2,10 to 990
22,Cc1[nH]nc2c1N=C(c1ccccc1)c1cc([N+](=O)[O-])ccc1N2,10 to 990
23,Cc1cn[nH]c1-c1[nH]nc2c1N=C(c1ccccc1Cl)c1cc([N+](=O)[O-])ccc1N2,10 to 990

# From the Kinase Knowledgebase extract (Sharma et al. 2016)
